Results: patent publication US11891625B2, “Methods and compositions relating to hematopoietic stem cell expansion, enrichment, and maintenance” (CHILDREN'S MEDICAL CENTER CORPORATION, priority 2015, dated 2024)

Key:
[1] = test system: murine HSCs (lineage-, ckit+, Sca1+, CD150+, CD48-, Fgd5ZsGr+); test: Culture of 40 murine HSCs for 12 days with compound cocktail plus RG108 and/or UNC0638, flow cytometry; type: cell-based; settings: cytokines plus cocktail incl. trichostatin A, plus either or both RG108 and UNC0638
Experimental: 40 murine HSCs (lineage−, ckit+, Sca1+, CD150+, CD48−, Fgd5ZsGr+) were cultured for 12 days in the presence of cytokines (SCF, TPO, and IL12) and a cocktail of compounds (Lithium chloride, nicotinamide, N-acetylcysteine, ascorbic acid, A83-01, and SB203580, trichostatin A) plus either or both DNA methyltransferase inhibitor (RG108) and G9a inhibitor (UNC0638). Flow cytometry plots of Fgd5+Lineage− cells from the indicated culture conditions are shown.
A series of experiments was conducted in order to determine the relative contribution of compounds that modulate particular pathways to the expansion of hematopoietic stem cells. FIGS. 21A-21B show the contribution of each compound/pathway in ability to maintain and expand phenotypic HSCs during ex vivo culture. […] 200 cord blood HSCs were cultured for 12 days in serum free media supplemented with cytokines (SCF, TPO, FLT3L, IL3) in the presence of the indicated chemical combinations (Tgfbeta inhibitor (A, A83-01), HDAC inhibitor (TSA, Trichostatin A), and LSD1 inhibitor (TC, Tranylcypromine)) or additionally supplemented with p38 inhibitor (p38i, SB203580) and analyzed by flow cytometry. FIG. 35A: Immunophenotype of the cells post-culturing, and FIG. 35B: quantification of immunophenotypic HSCs (Lineage− CD34+ CD45RA−CD38− CD90+CD49F+) cultured in the indicated conditions.

[2] = test system: murine HSCs (lineage-, ckit+, Sca1+, CD150+, CD48-, Fgd5ZsGr+); test: Culture of 100 murine HSCs with compound cocktail plus VPA or TSA, day 7 flow cytometry; type: cell-based; settings: cytokines plus cocktail (Lithium chloride, nicotinamide, N-acetylcysteine, ascorbic acid, A83-01, SB203580)
Experimental: 100 murine HSCs (lineage−, ckit+, Sca1+, CD150+, CD48−, Fgd5ZsGr+) were cultured in the presence of cytokines only (SCF, TPO, and IL12) in the absence of compounds (Standard), or additionally supplemented with a cocktail of compounds (Lithium chloride, nicotinamide, N-acetylcysteine, ascorbic acid, A83-01, and SB203580) plus either valproic acid (VPA) or trichostatin A (TSA), which are structurally distinct HDAC inhibitors. FIG. 22A depicts day 7 flow cytometric analysis and FIG. 22B depicts the proportion of Fgd5−ZsGreen+ Sca1+ cells for each replicate.
In addition to inhibitors of histone demethylation and TGFβ signaling, histone deacetylase inhibitors also promote the expansion, enrichment, and maintenance of hematopoietic stem cells ex vivo. […] 3000 CD34+ enriched mobilized peripheral blood cells were cultured for 7 days in serum free media supplemented with cytokines (SCF, TPO, FLT3L, IL3) in the presence of the indicated chemical combinations (Tgfbeta inhibitor (A, A83-01), pan-HDAC inhibitor (TSA, Trichostatin A), LSD1 inhibitor (TC, Tranylcypromine), p38 inhibitor (p38i, SB203580), HDAC1/2 inhibitor (Rom, Romidepsin)) and analyzed by flow cytometry. […]

ZsGr+ murine HSCs = test: 4.5 day ex vivo culture of 20 Fgd5 ZsGr+ HSCs (frequency and number of ZsGr+ cells); type: cell-based; settings: 4.5 days ex vivo culture
Excerpt: FIG. 10A depicts bright-field and ZsGr images of 20 Fgd5⋅ZsGr+ HSCs cultured for 4.5 days ex vivo in the presence of LSD1 inhibitor IV (LS), Tgfbeta inhibitor RepSox (RS), and the combination of both (C2). […] FIG. 10C depicts the number of ZsGr+ and ZsGr− cells after 4.5 day cultures.
(§1) An optimal combination of compounds that can be used to expand, enrich, and maintain the hematopoietic stem cell functional potential of hematopoietic stem cells includes a histone demethylase inhibitor and an inhibitor of the TGFβ receptor Alk5. […] Images taken at 4× magnification. […] FIGS. 9A-9B show the expansion of phenotypic HSCs for 14 days ex vivo. 20 murine HSCs (LSK34-Flk2-150+ZsGr+) were cultured in the presence of DMSO, LSD1 inhibitor IV (LS), Tgfbeta inhibitor RepSox (RS), and the combination of both (C2) for 14 days. This method supports maintenance and expansion of ZsGr+ HSCs. […] FIG. 9B: Number of ZsGr+ HSCs in each condition after 14 days of ex vivo culture. […] A) Bright-field and ZsGr images of 20 HSCs cultured for 4.5 days ex vivo in the presence of LSD1 inhibitor IV (LS), Tgfbeta inhibitor RepSox (RS), and the combination of both (C2). FIG. 10B: Frequency of ZsGr+ cells remaining following 4.5 days of ex vivo culture. FIG. 10C: Number of ZsGr+ (Green) and ZsGr− (Black) cells within 4.5 day cultures (See also FIGS. 11A-13F and 28A-32B).

human cord blood HSCs = test: In vitro colony forming assay of human cord blood HSCs after 14 days of ex vivo culture; type: cell-based; settings: 14 day cord blood HSC cultures
Experimental: FIG. 30A depicts colony counts and composition adjusted to represent the entire well following 14 days of ex vivo culture (Note: only a fraction of the well was added to methocult for colony formation). FIG. 30B depicts the frequency of myeloid colony types from 14 day cord blood HSC cultures.

[3] = test system: murine HSCs (Lineage- Sca1+ ckit+ CD34-Flk2- CD150+ Fgd5 ZsGr+); test: Ex vivo culture of 20 murine HSCs for 7 or 14 days (imaging, FACS of phenotypic HSCs); type: cell-based; settings: 7 or 14 days ex vivo, versus DMSO
Experimental: Images taken at 4× magnification.
FIGS. 9A-9B show the expansion of phenotypic murine HSCs for 14 days ex vivo. 20 murine HSCs (Lineage− Sca1+ ckit+ CD34−Flk2−CD150+Fgd5⋅ZsGr+) were cultured in the presence of DMSO, LSD1 inhibitor IV (LS), Tgfbeta inhibitor RepSox (RS), and the combination of both (C2) for 14 days. This method supports maintenance and expansion of ZsGr+ HSCs. […] FIG. 9B depicts the number of Lineage− Sca1+ ckit+ CD34−Flk2−CD150+Fgd5⋅ZsGr+ HSCs in each condition after 14 days of ex vivo culture.
as §1, with “FIG. 10B: Frequency of ZsGr+ cells remaining following 4.5 days of ex vivo culture. FIG. 10C: Number of ZsGr+ (Green) and ZsGr− (Black) cells within 4.5 day cultures (See also FIGS. 11A-13F and 28A-32B).” left out

p38 MAPK = settings: as described in U.S. Pat. No. 6,602,896; cited from earlier work
[4] = test system: human CD34+ peripheral blood and cord blood hematopoietic stem cells; settings: as described in the cited literature; cited from earlier work
[5] = test system: human mobilized peripheral blood CD34+ cells; test: Culture of 3000 CD34+ enriched mobilized peripheral blood cells for 7 days with chemicals or combinations, flow cytometry; type: cell-based; settings: combinations with A83-01, Tranylcypromine, SB203580
Experimental: 3000 CD34+ enriched mobilized peripheral blood cells were cultured for 7 days in serum free media supplemented with cytokines (SCF, TPO, FLT3L, IL3) in the presence of the indicated chemical combinations (Tgfbeta inhibitor (A, A83-01), pan-HDAC inhibitor (TSA, Trichostatin A), LSD1 inhibitor (TC, Tranylcypromine), p38 inhibitor (p38i, SB203580), HDAC1/2 inhibitor (Rom, Romidepsin)) and analyzed by flow cytometry. FIG. 41A depicts the immunophenotype of the cells, FIG. 41B depicts the percentage of indicated populations, and FIG. 41C depicts quantification of immunophenotypic HSCs (Lineage− CD34+ CD45RA−CD38− CD90+CD49F+) 7 days post-culturing in the indicated conditions.
3000 CD34+ enriched mobilized peripheral blood cells were cultured for 7 days in serum free media supplemented with cytokines (SCF, TPO, FLT3L, IL3) in the presence of the indicated chemical combinations (Tgfbeta inhibitor (A, A83-01), pan-HDAC inhibitor (TSA, Trichostatin A), LSD1 inhibitor (TC, Tranylcypromine), p38 inhibitor (p38i, SB203580), HDAC1/2 inhibitor (Rom, Romidepsin)) and analyzed by flow cytometry. FIG. 41A: immunophenotype of the cells, FIG. 41B: percentage of indicated populations, and FIG. 41C: quantification of immunophenotypic HSCs (Lineage− CD34+ CD45RA− CD38− CD90+CD49F+) 7 days post-culturing in the indicated conditions.

## O=C(O)[C@H](Cc1c[nH]c2ccccc12)N1C(=O)c2ccccc2C1=O [RG108, N-Phthalyl-L-tryptophan]
[1]
  heterogeneity of Fgd5 ZsGr+ cells with respect to CD48 and Sca1 expression: reduces heterogeneity

## CCCC(CCC)C(=O)O [valproic acid]
[2]
  maintenance of immunophenotypic HSCs by structurally distinct HDAC inhibitors: function equivalently to maintain immunophenotypic HSCs

## CN1CCN(C(=O)CN[C@@H]2C[C@H]2c2ccc(OCc3ccccc3)cc2)CC1 [LS]
ZsGr+ murine HSCs
  maintenance and expansion of ZsGr+ HSCs: supports maintenance and expansion of ZsGr+ murine HSCs
Human cord blood HSCs
  frequency of GEMM colonies: elevated frequency of most primitive GEMM colonies
[3]
  appearance of cultures (images at 4x magnification): more homogenous and less differentiated

## Oc1ccc(-c2nc(-c3ccc(F)cc3)c(-c3ccncc3)[nH]2)cc1 [SB202190, 4(4-Fluorophenyl)-2-(4-hydroxyphenyl)-5-(4-pyridyl) 1H-imidazole]
p38 MAPK
  selectivity among p38 MAPK isoforms: selectively antagonize p38 MAPK α- and β-isoforms without disrupting the enzymatic activity of the γ- or δ-isoforms

## COc1cc2c(NC3CCN(C(C)C)CC3)nc(C3CCCCC3)nc2cc1OCCCN1CCCC1 [UNC0638]
[1]
  heterogeneity of Fgd5 ZsGr+ cells with respect to CD48 and Sca1 expression: reduces heterogeneity

## CC(/C=C/C(=O)NO)=C\[C@@H](C)C(=O)c1ccc(N(C)C)cc1 [trichostatin A]
[2]
  maintenance of immunophenotypic HSCs by structurally distinct HDAC inhibitors: function equivalently to maintain immunophenotypic HSCs

## CC(C)n1cnc2c(NCCc3ccc(O)cc3)nc(-c3csc4ccccc34)nc21 [SR1]
[4]
  expansion and self-renewal of human CD34+ hematopoietic stem cells: promotes expansion and self-renewal of human CD34+ peripheral blood and cord blood hematopoietic stem cells

## Cc1cccc(-c2n[nH]cc2-c2ccc3ncccc3n2)n1 [RS]
ZsGr+ murine HSCs
  maintenance and expansion of ZsGr+ HSCs: supports maintenance and expansion of ZsGr+ murine HSCs
Human cord blood HSCs
  frequency of GEMM colonies: elevated frequency of most primitive GEMM colonies

## C/C=C1\NC(=O)[C@H]2CSSCC/C=C/[C@H](CC(=O)N[C@H](C(C)C)C(=O)N2)OC(=O)[C@H](C(C)C)NC1=O [Romidepsin]
[5]
  replacement of pan HDAC inhibitor in chemical combination for maintenance/expansion of human HSCs: can replace the pan HDAC inhibitor Trichostatin A for efficient ex vivo maintenance/expansion of human HSCs
